According to PubChem BioAssay AID328 (DTP/NCI, 2004):
“And” between values parts separate entries of the source, which are not always exact repeats. Equal values may be shown once. Toxic doses and inconclusive results are not listed. The calls were made as follows: active = survival T/C of 150% or more; inactive = T/C below 125% in these data.

System: BDF1 mice, P388 leukemia ip, median survival T/C
Test: NCI In Vivo Anticancer Drug Screen. Data for tumor model P388 Leukemia (intraperitoneal) in B6D2F1 (BDF1) mice
Settings: endpoint: median survival time, higher = longer survival
In short: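 Survival ratio, drug arm over vehicle arm, in mice with a transplanted tumour.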

[1] = dose: 100.0 mg/kg/injection, schedule: Q04DX003 (ip), vehicle: saline
[2] = dose: 200.0 mg/kg/injection, schedule: Q04DX003 (ip), vehicle: saline
[3] = dose: 400.0 mg/kg/injection, schedule: Q04DX003 (ip), vehicle: saline

Measured: T/C

CCOC(=O)N(CC)c1ccccc1
inactive: dose: 100.0 mg/kg/injection, schedule: Q04DX003 (ip), vehicle: Klucel (hydroxypropylcellulose) (HPC) 90 % of control | dose: 200.0 mg/kg/injection, schedule: Q04DX003 (ip), vehicle: Klucel (hydroxypropylcellulose) (HPC) 104 % of control | dose: 400.0 mg/kg/injection, schedule: Q04DX003 (ip), vehicle: Klucel (hydroxypropylcellulose) (HPC) 100 % of control

O=C(O)O.[Mn]
inactive: dose: 100.0 mg/kg/injection, schedule: Q01DX010 (ip), vehicle: water 86 % of control and 93 % of control | dose: 200.0 mg/kg/injection, schedule: Q01DX010 (ip), vehicle: water 91 % of control | dose: 400.0 mg/kg/injection, schedule: Q01DX010 (ip), vehicle: water 77 % of control | dose: 800.0 mg/kg/injection, schedule: Q01DX010 (ip), vehicle: water 83 % of control and 86 % of control

Nc1ncc2[nH]c(C(F)(F)F)nc2n1
inactive: dose: 50.0 mg/kg/injection, schedule: Q01DX009 (ip), vehicle: saline with Tween-80 102 % of control | dose: 100.0 mg/kg/injection, schedule: Q01DX009 (ip), vehicle: saline with Tween-80 102 % of control | dose: 200.0 mg/kg/injection, schedule: Q01DX009 (ip), vehicle: saline with Tween-80 105 % of control | dose: 400.0 mg/kg/injection, schedule: Q01DX009 (ip), vehicle: saline with Tween-80 117 % of control

NNCCC(=O)O
inactive: [1] 91 % of control | [2] 112 % of control | dose: 264.0 mg/kg/injection, schedule: Q04DX003 (ip), vehicle: saline 113 % of control | [3] 118 % of control and 123 % of control

CC(NC(=O)C(N)CSC(c1ccccc1)(c1ccccc1)c1ccccc1)C(=O)O (stereo unspecified)
active: dose: 200.0 mg/kg/injection, schedule: Q04DX003 (ip), vehicle: saline with Tween-80 195 % of control
inactive: dose: 88.0 mg/kg/injection, schedule: Q04DX003 (ip), vehicle: saline with Tween-80 113 % of control | dose: 88.0 mg/kg/injection, schedule: Q04DX003 (ip), vehicle: saline 122 % of control

CCOC(=O)CCN1CCCCC1
inactive: dose: 100.0 mg/kg/injection, schedule: Q01DX009 (ip), vehicle: saline 96 % of control | [1] 95 % of control | dose: 200.0 mg/kg/injection, schedule: Q01DX009 (ip), vehicle: saline 89 % of control | [2] 109 % of control | dose: 400.0 mg/kg/injection, schedule: Q01DX009 (ip), vehicle: saline 107 % of control | [3] 109 % of control

COC(=O)c1[nH]cnc1/N=N\N(CCF)CCF
inactive: dose: 100.0 mg/kg/injection, schedule: Q04DX003 (ip), vehicle: saline with Tween-80 86 % of control
active: dose: 16.5 mg/kg/injection, schedule: Q01DX009 (ip), vehicle: saline with Tween-80 179 % of control | dose: 25.0 mg/kg/injection, schedule: Q01DX009 (ip), vehicle: saline with Tween-80 188 % of control | dose: 37.5 mg/kg/injection, schedule: Q01DX009 (ip), vehicle: saline with Tween-80 166 % of control | dose: 44.0 mg/kg/injection, schedule: Q04DX003 (ip), vehicle: saline with Tween-80 168 % of control | dose: 66.0 mg/kg/injection, schedule: Q04DX003 (ip), vehicle: saline with Tween-80 218 % of control

CCOC(=O)C(=O)NCc1cnccn1
inactive: dose: 100.0 mg/kg/injection, schedule: Q04DX003 (ip), vehicle: water 104 % of control | dose: 200.0 mg/kg/injection, schedule: Q04DX003 (ip), vehicle: water 104 % of control | dose: 400.0 mg/kg/injection, schedule: Q04DX003 (ip), vehicle: water 100 % of control

O=c1c2ccccc2nc(-c2ccccc2)n1-c1nnc(C(F)(F)F)s1
inactive: dose: 3.12 mg/kg/injection, schedule: Q01DX009 (ip), vehicle: saline with Tween-80 101 % of control | dose: 6.25 mg/kg/injection, schedule: Q01DX009 (ip), vehicle: saline with Tween-80 105 % of control | dose: 12.5 mg/kg/injection, schedule: Q01DX009 (ip), vehicle: saline with Tween-80 91 % of control
